From patent US7666906B2, “β-Benzyloxyaspartate derivatives with amino group on benzene ring” (Suntory Holdings Limited, priority 2001, dated 2010) come the findings set out here.

For one test, the target named is T1, human EAAT2 (Homo sapiens, UniProt P43004).
T1 construct: expressed in transfected cells
Put plainly: inhibition of [14C]glutamate uptake by human EAAT2 expressed on MDCK or COS-1 cells. Format: cell-based. Conditions: 1 μM L-[14C]glutamate, 12 minutes. An excerpt: (§1) Well-known methods can be used to determine inhibitory activity of the compounds of the invention on glutamate transporters. For example, the compounds of the invention have been confirmed to inhibit uptake of ^14C-labeled glutamate into cells by human EAAT2 and EAAT3 stably expressed on MDCK (Madin-Darby Canine Kidney) cells or transiently expressed on COS-1 cells.
(§2) A known method (Shimamoto, K. et al., Mol. Pharmacol. 53, 195-201, 1998; Bioorg. Med. Chem. Lett. 10, 2407-2410, 2000) was used to measure the inhibitory effect on uptake of [^14C]glutamate by human EAAT2 and EAAT3 stably expressed on MDCK (Madin-Darby Canine Kidney) cells or transiently expressed on COS-1 cells. The glutamate uptake activity was measured by adding 1 μM of L-[^14C]glutamate and a prescribed concentration of sample, incubating for 12 minutes and then lysating the cells, and using a liquid scintillator to determine the radioactivity uptake. The uptake was expressed as a percentage, with 100% being the uptake with no compound (buffer alone) and 0% being the uptake with a sodium-free solution.

The target of the next test is T2, human EAAT3 (Homo sapiens, UniProt P43005).
T2 construct: expressed in transfected cells
T2 sequence (P43005 1-524): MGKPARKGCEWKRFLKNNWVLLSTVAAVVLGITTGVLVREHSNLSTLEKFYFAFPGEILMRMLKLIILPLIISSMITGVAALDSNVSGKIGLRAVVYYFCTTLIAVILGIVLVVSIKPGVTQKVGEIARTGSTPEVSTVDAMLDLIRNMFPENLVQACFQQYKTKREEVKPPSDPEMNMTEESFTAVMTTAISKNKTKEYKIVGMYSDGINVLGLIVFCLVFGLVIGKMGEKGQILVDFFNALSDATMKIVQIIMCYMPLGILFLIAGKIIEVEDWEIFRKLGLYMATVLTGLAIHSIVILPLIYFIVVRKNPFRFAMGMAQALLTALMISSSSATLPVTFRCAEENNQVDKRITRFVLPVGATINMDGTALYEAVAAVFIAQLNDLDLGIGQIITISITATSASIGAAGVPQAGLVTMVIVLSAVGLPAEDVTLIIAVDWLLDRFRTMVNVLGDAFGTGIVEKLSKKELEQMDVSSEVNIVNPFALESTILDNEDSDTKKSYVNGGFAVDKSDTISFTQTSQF
Put plainly: inhibition of [14C]glutamate uptake by human EAAT3 expressed on MDCK or COS-1 cells. In kind it is cell-based. Particulars: 1 μM L-[14C]glutamate, 12 minutes.
From the text: as §1, §2

Where [1] appears, read: COS-1 cells (transiently expressed), marked *.

T1 sequence (P43004 whole entry): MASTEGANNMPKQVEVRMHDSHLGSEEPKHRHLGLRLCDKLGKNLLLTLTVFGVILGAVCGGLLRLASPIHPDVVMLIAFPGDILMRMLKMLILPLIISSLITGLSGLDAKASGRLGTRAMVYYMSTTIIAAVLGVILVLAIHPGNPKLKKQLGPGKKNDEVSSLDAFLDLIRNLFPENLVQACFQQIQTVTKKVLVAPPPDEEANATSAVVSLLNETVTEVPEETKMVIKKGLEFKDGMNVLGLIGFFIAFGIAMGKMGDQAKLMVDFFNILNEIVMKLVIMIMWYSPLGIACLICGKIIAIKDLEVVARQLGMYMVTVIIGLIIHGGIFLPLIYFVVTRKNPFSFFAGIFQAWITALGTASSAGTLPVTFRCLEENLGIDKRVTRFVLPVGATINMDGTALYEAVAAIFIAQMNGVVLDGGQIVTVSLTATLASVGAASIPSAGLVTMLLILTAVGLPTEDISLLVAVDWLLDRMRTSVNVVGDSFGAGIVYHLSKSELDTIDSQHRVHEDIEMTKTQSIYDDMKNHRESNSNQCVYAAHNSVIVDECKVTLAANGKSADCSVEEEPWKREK

As a reminder, the IC50 is the concentration that inhibits the measured activity by half. A higher IC50 goes with weaker potency in that assay. On to `NCCCCCOc1ccc(C(=O)Nc2cccc(CO[C@H](C(=O)O)[C@H](N)C(=O)O)c2)cc1` [A-PenO-BzA-TBOA, (2S,3S)-3-[3-(N-(4-(5-aminopentyloxy)benzoyl)amino)benzyloxy]aspartic acid], for which the IC50 worked out at 7300 ± 1100 nM on human EAAT2 (stably expressed on MDCK cells) and 2200 ± 200 nM against human EAAT3 (stably expressed on MDCK cells).
Regarding `Nc1cccc(CO[C@H](C(=O)O)[C@H](N)C(=O)O)c1` [A-TBOA, (2S,3S)-3-(3-aminobenzyloxy)aspartic acid], the IC50 against human EAAT2 (stably expressed on MDCK cells) worked out at 2100 ± 100 nM; on human EAAT3 (stably expressed on MDCK cells), 7900 ± 760 nM.
Taken in the same sequence, the figures for `NCCC(=O)Nc1cccc(CO[C@H](C(=O)O)[C@H](N)C(=O)O)c1` [AA-TBOA, (2S,3S)-3-[3-(3-aminopropionylamino)benzyloxy]aspartic acid] were 13000 ± 1100 nM and 13000 ± 1100 nM.
Regarding `N[C@H](C(=O)O)[C@H](OCc1cccc(NC(=O)CCNC(=O)CCCC[C@@H]2SC[C@@H]3NC(=O)N[C@@H]32)c1)C(=O)O` [Bio-AA-TBOA, (2S,3S)-3-[3-(3-N-biotinylaminopropionylamino)benzyloxy]aspartic acid], the IC50 at human EAAT2 (stably expressed on MDCK cells) came to 6300 ± 390 nM; on human EAAT3 (stably expressed on MDCK cells), 10000 ± 930 nM.
In the case of `N[C@H](C(=O)O)[C@H](OCc1cccc(NC(=O)c2ccc(OCCCCCNC(=O)CCCC[C@@H]3SC[C@@H]4NC(=O)N[C@@H]43)cc2)c1)C(=O)O` [BioA-PenO-BzA-TBOA, (2S,3S)-3-[3-(N-(4-(5-biotynylaminopentyloxy)benzoyl)amino)benzyloxy]aspartic acid], the values for the half-inhibitory concentration (IC50) against human EAAT2 (stably expressed on MDCK cells) and against human EAAT3 (stably expressed on MDCK cells) were 2200 ± 520 nM and 1100 ± 60 nM, respectively.
With `N[C@H](C(=O)O)[C@H](OCc1cccc(NC(=O)CCCC[C@@H]2SC[C@@H]3NC(=O)N[C@@H]32)c1)C(=O)O` [BioA-TBOA, (2S,3S)-3-[3-(N-biotinylamino)benzyloxy]aspartic acid], the IC50 at human EAAT2 (stably expressed on MDCK cells) was 38000 ± 13000 nM; against human EAAT3 (stably expressed on MDCK cells), 25000 ± 2400 nM.
In the case of `N[C@H](C(=O)O)[C@H](OCc1cccc(NC(=O)c2ccccc2)c1)C(=O)O` [BzA-TBOA, (2S,3S)-3-[3-(N-benzoylamino)benzyloxy]aspartic acid], the results for the IC50 at human EAAT2 (stably expressed on MDCK cells) and against human EAAT3 (stably expressed on MDCK cells) were 55 ± 5 nM and 726 ± 98 nM, respectively.
In the case of `N[C@H](C(=O)O)[C@H](OCc1cccc(NC(=O)c2ccc(C(F)(F)F)cc2)c1)C(=O)O` [CF3-BzA-TBOA, (2S,3S)-3-[3-[N-(4-trifluoromethylbenzoyl)amino]benzyloxy]aspartic acid], the IC50 at human EAAT2 (stably expressed on MDCK cells) turned out to be 1.9 ± 0.1 nM; on human EAAT3 (stably expressed on MDCK cells) it was 28 ± 1.8 nM.
Turning to `N[C@H](C(=O)O)[C@H](OCc1cccc(NC(=O)C2CCCCC2)c1)C(=O)O` [CHexcA-TBOA, (2S,3S)-3-[3-(N-cyclohexylcarbonylamino)benzyloxy]aspartic acid], the concentration for half-maximal inhibition (IC50) against human EAAT2 (stably expressed on MDCK cells) came out at 244 ± 12 nM; against human EAAT3 (stably expressed on MDCK cells) it was 288 ± 8 nM.
Taken in the same sequence, the figures for `N#Cc1ccc(C(=O)Nc2cccc(CO[C@H](C(=O)O)[C@H](N)C(=O)O)c2)cc1` [CN-BzA-TBOA, (2S,3S)-3-[3-[N-(4-cyanobenzoyl)amino]benzyloxy]aspartic acid] were 36 ± 2.9 nM and 1400 ± 99 nM.
With `COc1ccc(C(=O)Nc2cccc(CO[C@H](C(=O)O)[C@H](N)C(=O)O)c2)cc1OC` [DiMeO-BzA-TBOA, (2S,3S)-3-[3-[N-(3,4-dimethoxybenzoyl)amino]benzyloxy]aspartic acid], the 50% inhibitory concentration (IC50) against human EAAT2 (stably expressed on MDCK cells) amounted to 49 ± 3.8 nM; at human EAAT3 (stably expressed on MDCK cells), 917 ± 30 nM.
For the compound `N[C@H](C(=O)O)[C@H](OCc1cccc(NC(=O)c2ccc(F)cc2)c1)C(=O)O` [F-BzA-TBOA, (2S,3S)-3-[3-[N-(4-fluorobenzoyl)amino]benzyloxy]aspartic acid], the concentration for half-maximal inhibition (IC50) against human EAAT2 (stably expressed on MDCK cells) turned out to be 22 ± 2.7 nM; at human EAAT3 (stably expressed on MDCK cells), 473 ± 13 nM.
In the case of `N[C@H](C(=O)O)[C@H](OCc1cccc(NC(=O)c2ccc([N+](=O)[O-])cc2)c1)C(=O)O` [NO2-BzA-TBOA, (2S,3S)-3-[3-[N-(4-nitrobenzoyl)amino]benzyloxy]aspartic acid], the results for the IC50 at human EAAT2 (stably expressed on MDCK cells) and on human EAAT3 (stably expressed on MDCK cells) were 14 ± 1.4 nM and 278 ± 32 nM, respectively.
On to `N[C@H](C(=O)O)[C@H](OCc1cccc(NC(=O)c2ccc(OC(F)(F)F)cc2)c1)C(=O)O` [OCF3-BzA-TBOA, (2S,3S)-3-[3-[N-(4-trifluoromethoxybenzoyl)amino]benzyloxy]aspartic acid], for which the IC50 was determined as 7 ± 0.5 nM at human EAAT2 (stably expressed on MDCK cells) and 128 ± 12 nM on human EAAT3 (stably expressed on MDCK cells).
For the compound `CCCCCCOc1ccc(C(=O)Nc2cccc(CO[C@H](C(=O)O)[C@H](N)C(=O)O)c2)cc1` [OHex-BzA-TBOA, (2S,3S)-3-[3-[N-(4-n-hexyloxybenzoyl)amino]benzyloxy]aspartic acid], the half-inhibitory concentration (IC50) on human EAAT2 (stably expressed on MDCK cells) turned out to be 1.2 ± 0.04 nM; on human EAAT3 (stably expressed on MDCK cells), 18 ± 1.6 nM.
Taken in the same sequence, the figures for `N[C@H](C(=O)O)[C@H](OCc1cccc(NC(=O)c2ccc(-c3ccccc3)cc2)c1)C(=O)O` [Ph-BzA-TBOA, (2S,3S)-3-[3-[N-(4-phenylbenzoyl)amino]benzyloxy]aspartic acid] were 21 ± 2.2 nM and 34 ± 19 nM.
With `N[C@H](C(=O)O)[C@H](OCc1cccc(NC(=O)Cc2ccccc2)c1)C(=O)O` [PhAcA-TBOA, (2S,3S)-3-[3-(N-phenylacetylamino)benzyloxy]aspartic acid], the results for the IC50 against human EAAT2 (stably expressed on MDCK cells) and against human EAAT3 (stably expressed on MDCK cells) were 143 ± 7.9 nM and 529 ± 32 nM, respectively.
The like results for `CC(C)(C)C(=O)Nc1cccc(CO[C@H](C(=O)O)[C@H](N)C(=O)O)c1` [Piv-A-TBOA, (2S,3S)-3-[3-(N-pivaroylamino)benzyloxy]aspartic acid] were, in that order, 1000 ± 130 nM and 4100 ± 670 nM.
As to `CCC(=O)Nc1cccc(CO[C@H](C(=O)O)[C@H](N)C(=O)O)c1` [Pr-A-TBOA, (2S,3S)-3-[3-(N-propionylamino)benzyloxy]aspartic acid], the concentration for half-maximal inhibition (IC50) on human EAAT2 (stably expressed on MDCK cells) stood at 2000 ± 210 nM; against human EAAT3 (stably expressed on MDCK cells) it was 7900 ± 460 nM.
With `CCC(=O)NCCC(=O)Nc1cccc(COC(C(=O)O)C(N)C(=O)O)c1` [Pr-AA-TBOA, (2S,3S)-3-[3-(3-N-propionylaminopropionylamino)benzyloxy]aspartic acid], the IC50 at human EAAT2 (stably expressed on MDCK cells) was 6000 ± 1400 nM; against human EAAT3 (stably expressed on MDCK cells) it was 7600 ± 450 nM.
Take `N[C@H](C(=O)O)[C@H](OCc1ccccc1)C(=O)O` [TBOA, L-threo-β-benzyloxyaspartate, reference compound]: the half-inhibitory concentration (IC50) against human EAAT2 (stably expressed on MDCK cells) came out at 1400 ± 120 nM; against human EAAT3 (stably expressed on MDCK cells), 1300 ± 110 nM.
Regarding `CC(C)(C)c1ccc(C(=O)Nc2cccc(CO[C@H](C(=O)O)[C@H](N)C(=O)O)c2)cc1` [TBu-BzA-TBOA, (2S,3S)-3-[3-[N-(4-tert-butylbenzoyl)amino]benzyloxy]aspartic acid], the half-inhibitory concentration (IC50) against human EAAT2 (stably expressed on MDCK cells) is 25 ± 0.5 nM; on human EAAT3 (stably expressed on MDCK cells) it was 182 ± 11 nM.
The like results for `COc1cccc(C(=O)Nc2cccc(CO[C@H](C(=O)O)[C@H](N)C(=O)O)c2)c1` [m-MeO-BzA-TBOA, (2S,3S)-3-[3-[N-(3-methoxybenzoyl)amino]benzyloxy]aspartic acid] were, in that order, 37 ± 2.5 nM and 356 ± 12 nM.
For the compound `COc1ccccc1C(=O)Nc1cccc(CO[C@H](C(=O)O)[C@H](N)C(=O)O)c1` [o-MeO-BzA-TBOA, (2S,3S)-3-[3-[N-(2-methoxybenzoyl)amino]benzyloxy]aspartic acid], the IC50 amounted to 145 ± 2.2 nM against human EAAT2 (stably expressed on MDCK cells) and 1000 ± 42 nM against human EAAT3 (stably expressed on MDCK cells).
On to `COc1ccc(C(=O)Nc2cccc(CO[C@H](C(=O)O)[C@H](N)C(=O)O)c2)cc1` [p-MeO-BzA-TBOA, (2S,3S)-3-[3-[N-(4-methoxybenzoyl)amino]benzyloxy]aspartic acid], for which the figures for the IC50 on human EAAT2 (stably expressed on MDCK cells) and against human EAAT3 (stably expressed on MDCK cells) were 12 ± 0.5 nM and 266 ± 20 nM, respectively.
Take `CCC(=O)Nc1ccc(CO[C@H](C(=O)O)[C@H](N)C(=O)O)cc1` [p-Pr-A-TBOA, (2S,3S)-3-[4-(N-propionylamino)benzyloxy]aspartic acid]: the figures for the 50% inhibitory concentration (IC50) on human EAAT2 (setting [1]) and on human EAAT3 (setting [1]) were 111000 ± 25000 nM and 295000 ± 118000 nM, respectively.
